The target in one assay is T1, RET (WT) (Homo sapiens, UniProt P07949).
T1 construct: human RET (658-end, SIGNALCHEM); purchased SIGNALCHEM
T1 sequence (P07949 658-1114 limits assumed): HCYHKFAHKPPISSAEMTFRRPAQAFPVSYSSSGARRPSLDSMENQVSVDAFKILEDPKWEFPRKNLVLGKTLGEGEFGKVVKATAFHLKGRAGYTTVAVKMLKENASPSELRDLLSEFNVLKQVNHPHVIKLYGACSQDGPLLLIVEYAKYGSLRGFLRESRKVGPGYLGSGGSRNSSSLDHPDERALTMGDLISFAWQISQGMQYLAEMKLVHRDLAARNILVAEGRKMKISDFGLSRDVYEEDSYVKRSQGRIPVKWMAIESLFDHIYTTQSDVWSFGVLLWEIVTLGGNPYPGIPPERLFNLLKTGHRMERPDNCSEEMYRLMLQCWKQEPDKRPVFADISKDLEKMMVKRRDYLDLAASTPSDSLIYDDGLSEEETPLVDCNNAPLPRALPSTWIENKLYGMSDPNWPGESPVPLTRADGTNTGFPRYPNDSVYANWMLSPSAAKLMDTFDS
In words: RET enzyme inhibitory ability, ADP-Glo kinase assay. The format is biochemical. Particulars: ATP 10 μM, 25° C., 1 hour. As to the method: The Example compound was reacted with a purified human RET (658-end, SIGNALCHEM) enzyme to evaluate the enzyme inhibitory ability by the following method. As a reaction buffer, a composition of 40 mM Tris-HCl pH 7.4, 20 mM MgCl2, 0.5 mg/mL BSA, and 50 μM DTT was used, and all experimental materials were reacted on the reaction buffer. After the human RET (658-end, 0.8 ng) enzyme was reacted with purified ATP (10 μM) and a specific substrate solution at 25° C. for 1 hour during the experiment, the enzyme activity was confirmed using in vitro ADP-Glo™ kinase assay (Promega). Luminescence was measured by reacting the enzyme activity reaction solution, the ADP-Glo reaction solution, and the enzyme activity detection solution at a ratio of 2:2:1. The degree of inhibition of enzyme activity according to the treatment concentration of each compound was calculated based on the […] of the enzyme activity of a solvent control group in which a compound was not treated, and in this case, the concentration of each compound which suppresses the […] enzyme activity by 50% was determined as an IC50 (nM) value. The IC50 (nM) of each compound was determined by 3 datasets and obtained using Prism (version 7.01, GraphPad) software.
In the enzyme assay column, RET (WT) is a non-mutated form, RET (V804M) is a mutated form in which the V amino acid at position 804 of the RET is substituted with M, and CCDC6-RET is a form in which the RET (WT) gene and CCDC6 gene are fused.
Background: ADP-Glo first removes unused ATP, then detects ADP through luciferase.

Another assay has as its system TT cells. In words: Cell proliferation inhibition, CellTiter-Glo. The format is cell-based. The note with it: Homo sapiens; TT thyroid cancer cell line, 72 hours. As to the method: (§1) Among lung cancer cell lines, which express RET fusion genes, LC-2/ad cells were cultured after adding 10% FBS (HyClone) to RPMI:F12 (1:1) (Invitrogen), and F-12 (Invitrogen) supplemented with 10% FBS was used for TT cells. RPMI-1640 supplemented with 10% FBS and 5 ng/ml IL-3 (R&D Systems) was used for Ba/F3 cells. Transduced Ba/F3 cells were cultured by adding 1 ug/ml puromycin (Invitrogen) to the same medium. 24 hours before cells were treated with the compound, 3000 to 5000 cells were aliquoted into each well of a white clear bottom 96 well plate (Corning). The compound was diluted in DMSO (3-fold dilution, a total of 12 concentrations) and the compound was injected by 0.5 μl such that the final concentration was 0.3 nM to 50 μM. For the measurement of living cells, 72 hours after the compound treatment, the cells were stored at room temperature for 10 minutes using a CellTiter-Glo luminescent cell-viability agent (Promega), and then the luminescence intensity was measured using a reader (SynergyNeo, Biotek). Each experiment was repeated in triplicate. The result value was calculated by the cell growth ratio (%) compared to the control. A graph was drawn using the GraphPad Prism version 5.0 program, and a GI50 (nM) value was calculated.
(§2) In the cell assay column, LC-2/ad (with CCDC6-RET gene) is a lung cancer cell line, a TT cell line ([…]) is a thyroid cancer cell line, Ba/F3 CCDC6-RET (WT), Ba/F3 KIF5B-RET (WT), and Ba/F3 KIF5B-RET (V804M) are cells in which disease-related traits (CCDC6-RET, KIF5B-RET, and KIF5B-RET (V804M)) are introduced into Ba/F3 cells, and Ba/F3 (naive) is a cell which is not transduced.
Background: Cellular ATP, detected with luciferase, serves as a proxy for viable cell number.

Another assay has as its system Ba/F3 (naive) cells. In words: Cell proliferation inhibition, CellTiter-Glo. Format: cell-based. The note with it: Mus musculus, BaF3; Ba/F3 not transduced, 72 hours. As to the method: as §1, §2
Assay [1] has as its system Ba/F3 KIF5B-RET (V804M) cells. In words: Cell proliferation inhibition, CellTiter-Glo. Format: cell-based. Particulars: Mus musculus, BaF3, 72 hours. As to the method: as §1, §2
Assay [2] has as its system Ba/F3 KIF5B-RET (WT) cells. Description: Cell proliferation inhibition, CellTiter-Glo. Format: cell-based. Particulars: Mus musculus, BaF3, 72 hours. As to the method:
as §1, §2

The subject of assay [3] is Ba/F3 CCDC6-RET (WT) cells. In words: Cell proliferation inhibition, CellTiter-Glo. The note with it: BaF3/CCDC6-RET, 72 hours. The format is cell-based. The method, then: as §1, §2

Each structure is given as a SMILES string.

The text below walks through data of patent US12281121B2, “N-containing heteroaryl derivative and pharmaceutical composition comprising same as active ingredient for prevention or treatment of cancer” (VORONOI Inc., priority 2019, dated 2025).

Broadly, the IC50 is the concentration that gives 50% inhibition. For orientation: GI50 means the concentration giving 50% growth inhibition.

`COc1ccc(CN2C3CC2CN(c2ccc(-c4nc(Nc5cc(C(F)(F)F)[nH]n5)c5occc5n4)cn2)C3)cn1` [Example 4, 2-(6-(6-((6-methoxypyridin-3-yl)methyl)-3,6-diazabicyclo [3.1.1]heptan-3-yl)pyridin-3-yl)-N-(5-(trifluoromethyl)-1H-pyrazol-3-yl)furo[3,2-d]pyrimidin-4-amine] registered an IC50 against RET (WT) above 15000 nM. For the same compound, the GI50 (with TT cells; in the assay with Ba/F3 (naive) cells; in assay [1]) was above 15000 nM throughout.

In turn, `COc1ccc(CN2C3CC2CN(c2ccc(-c4nc5c(c(Nc6cc(C)[nH]n6)n4)CCC5)cn2)C3)cn1` [Example 7, 2-(6-(6-((6-methoxypyridin-3-yl)methyl)-3,6-diazabicyclo [3.1.1]heptan-3-yl)pyridin-3-yl)-N-(5-methyl-1H-pyrazol-3-yl)-6,7-dihydro-5H-cyclopenta[d]py-rimidin-4-amine] gave an IC50 on RET (WT) of 10 nM. Moreover, the GI50 in assay [2] is 15 nM; with TT cells, 41 nM; with Ba/F3 (naive) cells it was 6070 nM; in assay [1], 7 nM; in assay [3] it was 45 nM.

`COc1ccc(CN2C3CC2CN(c2ccc(-c4nc(Nc5cc(C)[nH]n5)c5ccccc5n4)cn2)C3)cc1` [Example 14, 2-(6-(6-(4-methoxybenzyl)-3,6-diaza-bicyclo[3.1.1]heptan-3-yl)pyridin-3-yl)-N-(5-methyl-1H-pyrazol-3-yl)quinazolin-4-amine] registered an IC50 on RET (WT) of 10 nM. In addition, the GI50 in assay [2] worked out at 11 nM; in the assay on Ba/F3 (naive) cells, 2700 nM; in assay [1], 22 nM; in assay [3] it was 33 nM.

On to `COc1ccc(CN2CCN(c3ccc(-c4nc(Nc5cc(C)[nH]n5)c5ccccc5n4)cn3)C[C@H]2C)cn1` [Example 36, (R)-2-(6-(4-((6-methoxypyridin-3-yl)methyl)-3-methylpiperazin-1-yl)pyridin-3-yl)-N-(5-methyl-1H-pyrazol-3-yl)quinazolin-4-amine], for which the midpoint of inhibition against RET (WT), the IC50, lay at 59 nM. Further, the GI50 in assay [2] worked out at 63 nM; in the assay on Ba/F3 (naive) cells it was 4800 nM; in assay [1] it was 32 nM; in assay [3], 259 nM.

In the case of `COc1ccc(CN2C3CC2CN(c2ccc(-c4nc(Nc5cc(C)[nH]n5)c5sccc5n4)cn2)C3)cn1` [Example 2, 2-(6-(6-((6-methoxypyridin-3-yl)methyl)-3,6-diazabicyclo [3.1.1]heptan-3-yl)pyridin-3-yl)-N-(5-methyl-1H-pyrazol-3-yl)thieno[3,2-d]pyrimidin-4-amine], half-maximal inhibition at RET (WT) (IC50) required 12 nM. Moreover, the GI50 was determined as 11 nM in assay [2]; 48 nM with TT cells; 4380 nM with Ba/F3 (naive) cells; 14 nM in assay [1]; 49 nM in assay [3].

In the case of `Cc1cnc(CN2C3CC2CN(c2ccc(-c4nc(Nc5cc(C)[nH]n5)c5ccccc5n4)cn2)C3)cn1` [Example 26, N-(5-methyl-1H-pyrazol-3-yl)-2-(6-(6-((5-methylpyrazin-2-yl)methyl)-3,6-diazabicyclo [3.1.1]heptan-3-yl)pyridin-3-yl)quinazolin-4-amine], the IC50 against RET (WT) was determined as 7 nM. In addition, the GI50 was found to be 10 nM in assay [2], 973 nM in the assay with Ba/F3 (naive) cells, 10 nM in assay [1] and 37 nM in assay [3].
